Consider ten compounds from ChEMBL document CHEMBL1123893, “Synthesis and physicochemical properties of thiadiazolo[3,2-a]pyrimidinesulfonamides and thiadiazolo[3,2-a]triazinesulfonamides as candidates for topically effective carbonic anhydrase inhibitors” (J Med Chem, 1987).

Converted amounts (≈) assume the structure as drawn.

The species entered for data set [1] is Oryctolagus cuniculus. In words: Evaluated for effect on intraocular pressure(IOP) in rabbit after 1 hour. The data set is classed as functional, Eye.
Data set [2] is filed under the species Oryctolagus cuniculus. The note with it: rabbit, in vivo.
Description: Evaluated for first order rate constant (Kin) for transcorneal penetration in anesthetized rabbits
The nature of data set [3]: physchem. The following applies: buffer.
Description: Evaluated for sulfonamide pKa, free acid water solubility
The nature of data set [4]: physchem.
Description: Compound was evaluated for its solubility in water
Data set [5] addresses Carbonic anhydrase.
Description: Evaluated for its activity against carbonic anhydrase (CA) in anesthetized rabbits
The species named for data set [6] is Oryctolagus cuniculus.
For data set [7] the following is noted: octanol/water, pH 7.4.
Description: Evaluated for lipid solubility measured as partition coefficient at a pH 7.4 (CHCl3/buffer)

With `Cn1nc(S(N)(=O)=O)s/c1=N\C(=O)C(F)(F)F`, the Effect in data set [1] is reported as -3.1 mmHg. Also, the Kin in data set [2] amounted to 0.014 h⁻¹. In addition, the pKa (as a rule, the pH at which an ionisable group is half protonated) in data set [3] came to 6.6. Besides, the concentration in solution in data set [4] (water) (solubility) came to 8 mM (≈ 2320 µg/mL).
In turn, `CCn1c(=O)nc2sc(S(N)(=O)=O)nn2c1=O` registered an I50 in data set [5] of 20 nM. For the same compound, the Effect in data set [6] is recorded as 0 mmHg.
In data set [5], `NS(=O)(=O)c1nn2c(O)cc(=O)nc2s1` registered an I50 of 37 nM.
In data set [5], `NS(=O)(=O)c1nn2c(=O)n(CCCl)c(=O)nc2s1` yielded an I50 of 18 nM. Also, the Effect in data set [6] is 0 mmHg.
`COc1cc(=O)nc2sc(S(N)(=O)=O)nn12` yielded an I50 in data set [5] of 50 nM. For the same compound, the Effect in data set [6] is recorded as 0 mmHg.
The like results for `NS(=O)(=O)C1=NN2C(=NC(=O)NS2(=O)=O)S1` were, in that order, 50 nM and 0 mmHg.
In the case of `NS(=O)(=O)c1nn2c(=O)[nH]c(=O)nc2s1`, the I50 in data set [5] is 20 nM. Further, the Effect in data set [6] came to 0 mmHg. The pKa in data set [3] was determined as 8.3. For the same compound, the concentration in solution in data set [4] (water) (solubility) came to 4 mM (≈ 997 µg/mL).
In data set [5], `NS(=O)(=O)C1=NN2CCS(=O)(=O)N=C2S1` registered an I50 of 14 nM. The Effect in data set [6] was determined as 0 mmHg.
The like results for `Cn1c(=O)nc2sc(S(N)(=O)=O)nn2c1=O` were, in that order, 20 nM and -1 mmHg.
In data set [2], `CC(=O)/N=c1/sc(S(N)(=O)=O)nn1C` [METHAZOLAMIDE] gave a Kin of 0.006 h⁻¹. Also, the pH-dependent lipophilicity (log D) (commonly the decadic logarithm of the distribution of all forms, ionised or not, between an organic phase and buffer at a given pH) in data set [7] was found to be 0.06. Further, the Effect in data set [6] is -0.6 mmHg. The solubility (usually the dissolved amount per volume that the medium holds) in data set [4] (buffer) came out at 5 mM (≈ 1180 µg/mL).
